Literature values in patent publication US20050064031A1, “Combination contraceptive, kits that contain the latter, and a method that uses the latter” (priority 1995, published 2005).

System: breast tumors
Conditions: rats treated before the administration of a carcinogen

Which “development of breast tumors” value does the source give for `CN(C)c1ccc([C@H]2C[C@]3(C)[C@@H](CC[C@]3(O)CCCO)[C@@H]3CCC4=CC(=O)CCC4=C32)cc1` [onapristone] here?
The value was “can be inhibited”.
